Experiments:
[1] = system: retinal ganglion cells (RGC); assay: Glaucoma model, count of retinal ganglion cells; type: in vivo, Sprague Dawley rats
Procedure: 12 Sprague Dawley rats (4 months of age) were anesthetized with […] and subjected to hypertonic saline solution injection into the episcleral vein of the right eye. Intraocular pressure (IOP) was measured before the operation and was monitored one time a week using a TonoLab for 7 weeks. Treatment with G79 was begun one week after glaucoma induction by topical application at the conjunctive. Two different experiments were performed.
In the first experiment, G79 was dissolved into physiological solution and was used at two different concentration (200 μg/ml and 400 μg/ml). NGF was used as positive control (200 μg/ml) and the physiological solution, used to dissolve all the molecules, was subministered as placebo. The animals were divided into 4 groups (3 animals in each group): glaucoma-G79 200 μg/ml; glaucoma-G79 […]; glaucoma-NGF; glaucoma-placebo. The left eye was used as the control without glaucoma. In both experiments, seven weeks after glaucoma induction, animals were sacrificed by overdose of anaesthetic and their eyes were taken and fixed in 4% of PFA. The eyes were included in paraffin and cut into 20 μm sections to be used for histological studies (hematoxilin-eosin staining). The cell count of the number of retinal ganglion cells (RGC) was performed randomly in ten different fields for each eye.
Rats were injected with a hypertonic solution in the eye that induced high intraocular pressure for five weeks. Animals were treated with eye drops of NGF ([…]), G79 ([…]) or placebo every day for five weeks. Animals with glaucoma and treated with placebo (saline) have a significant decrease in the number of retinal ganglion cells compared with control.
In the second experiment, G79 at the concentration of 200 μg/ml was used. The objective of this second experiment was to compare the efficacy of G79 to Timolol, the most common therapy for glaucoma that works by decreasing the intraocular pressure. Also in this experiment, a combination treatment with G79 and Timolol was performed. […]

[2] = system: NGF-receptors (TrkA and p75) on PC12 cells; assay: Cytometry binding assay, competition NGF/G79-FITC in PC12; conditions: G79-FITC 100 ng/ml; NGF 0-10-20-50-100 ng/ml
Procedure: (§1) In order to assess the binding of G79 to the TrkA (PC12 cells) and TrkB receptors (SH-SY5Y), we performed competitive binding assays by flow cytometry. In order to assess the binding competition between p75 and TrkA, PC12 cells expressing both TrkA and p75 receptors were cultivated in normal growth medium. After detaching cells by trypsin solution, 200,000 cells/well were added to tubes for the following incubations. One tube contains control untreated cells. In the other tubes, cells were pre-incubated for 45 minutes with different concentrations of NGF (0-10-20-50-100 ng/ml), that can directly bind both TrkA and p75 receptors, blocking the possible binding of G79 if it competes for the same receptors. Then, without washing the cells, G79 conjugated with FITC fluorescence (100 ng/ml) was added and so incubated the cells for 1 hour. Samples were read in a cytometer (FCAScan).
(§2) To detect the binding separately on both receptors, a prior incubation of cells (before NGF incubation) with blocking antibodies was made. The cells were preincubated for 1 hour with blocking antibody anti-p75 (1:100; Chemicon Int.), to detect the binding on TrkA, or blocking antibody anti-TrkA (1:200; AbCam) to detect the binding on p75. […] All the results are expressed as mean channel fluorescence (MCF), which is a measure of the cell surface fluorescence produced by G79-FITC binding.

[3] = system: TrkB and p75 on SH-SY5Y cells; assay: Cytometry binding assay, competition BDNF/G79-FITC in SH-SY5Y; parameters: species or system human; conditions: growing concentrations of BDNF
Procedure: as §1, §2

TrkA = biological target: T1, TrkA (Rattus norvegicus, UniProt P35739); assay: Cytometry binding assay in PC12 with antibody anti-p75; conditions: pre-incubation with the antibody anti-p75; growing NGF
T1 construct: PC12 cells expressing both TrkA and p75 receptors were cultivated in normal growth medium; endogenous in cells; host or cells: PC12
T1 sequence (P35739 33-799): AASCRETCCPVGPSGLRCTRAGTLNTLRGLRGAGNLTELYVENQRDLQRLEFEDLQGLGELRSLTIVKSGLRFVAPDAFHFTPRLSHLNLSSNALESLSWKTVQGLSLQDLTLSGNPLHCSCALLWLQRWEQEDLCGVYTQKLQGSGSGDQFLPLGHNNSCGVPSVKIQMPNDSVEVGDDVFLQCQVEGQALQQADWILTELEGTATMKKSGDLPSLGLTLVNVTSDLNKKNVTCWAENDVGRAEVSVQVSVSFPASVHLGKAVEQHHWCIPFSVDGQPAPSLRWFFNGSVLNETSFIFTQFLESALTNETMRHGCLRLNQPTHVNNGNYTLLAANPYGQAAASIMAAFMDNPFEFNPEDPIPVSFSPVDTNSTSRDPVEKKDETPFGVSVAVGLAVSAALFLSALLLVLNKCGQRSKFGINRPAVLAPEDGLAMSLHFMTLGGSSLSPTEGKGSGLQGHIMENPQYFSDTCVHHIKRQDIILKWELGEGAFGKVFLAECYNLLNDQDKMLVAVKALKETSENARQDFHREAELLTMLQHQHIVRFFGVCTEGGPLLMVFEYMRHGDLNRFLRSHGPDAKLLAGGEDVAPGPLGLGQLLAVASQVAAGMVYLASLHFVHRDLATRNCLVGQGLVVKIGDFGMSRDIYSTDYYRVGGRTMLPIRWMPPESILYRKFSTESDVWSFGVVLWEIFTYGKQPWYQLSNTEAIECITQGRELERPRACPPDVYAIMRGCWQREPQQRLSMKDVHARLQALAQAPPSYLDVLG
Procedure: as §1, §2

CC(C)CN(CC(=O)N(CCCN1CCCC1=O)CC(N)=O)C(=O)CNCCc1ccccc1F [Compound G79, [N-(2-(2′-Fluorophenyl)ethyl)glycyl]-[N-(2-methylpropyl)glycyl]-N-[3-(2′-oxopyrrolidinyl)propyl]glycinamide]
protection of retinal ganglion cells (number of RGC vs glaucoma-placebo) ([1]; first experiment, eye drops, NGF 200, G79 200 and 400 μg/ml): significant protection of the ganglion cells
protection of RGCs by the combination treatment ([1]; second experiment, G79 200 μg/ml in combination with Timolol): did not exert additive effect in protecting RGCs
competition with NGF for binding (MCF of G79-FITC) [2]: competes for the binding on the same NGF-receptors
competition with BDNF for binding (MCF of G79-FITC) [3]: competes with BDNF to one of its receptors
binding on TrkA (MCF of G79-FITC) (TrkA): apparently does not compete with NGF for the binding on TrkA

Reference: US10106577B2, “Agonists of neurotrophin receptors and their use as medicaments” (BIONURE FARMA, S.L., priority 2010, dated 2018)
